In patent US20150225377A1, “VEGFR3 INHIBITORS” (CANCER THERAPEUTICS CRC PTY LIMITED, priority 2012, published 2015):

Target: T1, VEGFR2 (Homo sapiens, UniProt P35968)
T1 construct: host or cells: HUVEC
Assay: VEGFR2 Phospho ELISA assay in HUVEC, VEGF stimulated
Type: cell-based
Details: 1 hour compound, 50 ng/mL VEGF 10 minutes
Experimental: Adult human umbilical vein endothelial cells (HUVEC) (Cat#CC-2519, Lonza) were seeded into clear-bottom, TC treated 12 well plates (Cat #665180, Greiner Bio-One) in EGM-2 (Cat#CC-3162, Lonza) at 180,000 cells/well (volume 1 mL), and the plates incubated at 37° C. and 5% CO2 for 6 hours. The media was replaced with EBM-2 (Cat #CC-3156, Lonza)+0.1% BSA (Cat#A8412, Sigma) and cells incubated for a further period (overnight at 37° C. and 5% CO2).
96 well Maxisorp immuno plates (Cat #439454, Nunc) were coated with 100 μL of Total VEGFR^2 capture antibody (Part #841434, Human Total VEGFR^2/FLT4 ELISA Kit, Cat #DYC1780, R&D Systems), or Phospho VEGFR^2 Capture antibody (Part #841419, Human Phospho VEGFR^2/FLT4 ELISA Kit, Cat#DYC1766, R&D Systems). The plates were covered and incubated at room temperature overnight.
The coating antibody was flicked out and the plates washed three times with Wash Buffer (Phosphate buffered saline (137 mM NaCl, […], […], […], pH 7.2-7.4), 0.05% Tween 20). 300 μL of Blocking buffer (1% v/v BSA (Cat#A8412, Sigma) in PBS) was then added to wells and plate incubated for 2 hours at room temperature. Blocking solution is flicked out and plates washed three times and tapped dry.
Compound dilution series were prepared in EBM-2 (Cat #CC-3156, Lonza)+0.1% BSA (Cat#A8412, Sigma) with constant 0.1% DMSO concentration. 427.5 μL of sample or vehicle control was added to the cell monolayers. Cells are treated for 1 hour at 37° C. and 5% CO2. 50 ng/mL Recombinant human VEGF (Cat #293-VC, R & D Systems) added to wells and plates incubated for an additional 10 minutes at 37° C. and 5% CO2.
The media and compounds were removed and the cell monolayer washed once in Dulbecco's Phosphate Buffered Saline (Cat #21600-044, Invitrogen). 130 μL of Lysis buffer added to wells and cell lysate harvested and transferred to tubes and stored on ice. Complete lysis buffer was prepared by adding 10 μL Protease Inhibitor Cocktail (Cat #P8340, Sigma-Aldrich), 10 μL PMSF (Phenylmethanesulfonyl fluoride, Cat #P7626, Sigma-Aldrich, prepared as 500 mM DMSO stock) per 1 mL of Phosphosafe™ Extraction Reagent (Cat #71296, Merck).
The harvested samples were then diluted 1:2 in IC Diluent #12 (1% NP-40, […] (pH 8.0), 137 mM NaCl, 10% glycerol, 2 mM EDTA, 1 mM activated sodium orthovanadate) and 100 μL transferred to the Total and Phospho VEGFR^2 coated, blocked and washed 96 well plates and incubated for 2 hours at room temperature. The plates were then washed three times in wash buffer as described above and tapped dry.
For detection of Total VEGFR^2100 μL of Detection antibody (Total VEGFR^2 Detection Antibody Part#841435 in Total VEGFR^2 kit) diluted in IC Diluent #14 (20 mM Tris, […], 0.05% Tween20, 0.1% BSA) was added to wells and the plate incubated for 2 hours at room temperature. The plate was then washed three times in wash buffer and tapped dry. 100 μL of streptavidin-HPR diluted in IC diluent #14 Streptavidin-HRP, Part #890803 in Total VEGFR^2 kit) was added to wells and incubated at room temperature for 20 minutes followed by washing as described above. 100 μL Substrate solution (3,3′,5,5′-Tetramethylbenzidine (TMB) Liquid Substrate System for ELISA, Cat #T0440, Sigma-Aldrich) was added and the plate incubated for 20 minutes in the dark at room temperature followed by the addition of 50 μL stop solution (2 M H2SO4).
Total VEGFR^2 levels were quantified using a Multiskan Ascent plate reader and Ascent software fitted with 450 nm filter.
For detection of Phospho VEGFR^2, 100 μL of Detection antibody (Anti-Phospho-Tyrosine-HRP Detection Antibody, Part #841403 in Phospho VEGFR^2 kit) was diluted in IC Diluent 14 (20 mM Tris, […], 0.05% Tween20, 0.1% BSA), was added to the wells and the plate incubated for 2 hours at room temperature. The plate was then washed three times in wash buffer as described above and tapped dry. […]

T1 sequence (P35968 20-1356): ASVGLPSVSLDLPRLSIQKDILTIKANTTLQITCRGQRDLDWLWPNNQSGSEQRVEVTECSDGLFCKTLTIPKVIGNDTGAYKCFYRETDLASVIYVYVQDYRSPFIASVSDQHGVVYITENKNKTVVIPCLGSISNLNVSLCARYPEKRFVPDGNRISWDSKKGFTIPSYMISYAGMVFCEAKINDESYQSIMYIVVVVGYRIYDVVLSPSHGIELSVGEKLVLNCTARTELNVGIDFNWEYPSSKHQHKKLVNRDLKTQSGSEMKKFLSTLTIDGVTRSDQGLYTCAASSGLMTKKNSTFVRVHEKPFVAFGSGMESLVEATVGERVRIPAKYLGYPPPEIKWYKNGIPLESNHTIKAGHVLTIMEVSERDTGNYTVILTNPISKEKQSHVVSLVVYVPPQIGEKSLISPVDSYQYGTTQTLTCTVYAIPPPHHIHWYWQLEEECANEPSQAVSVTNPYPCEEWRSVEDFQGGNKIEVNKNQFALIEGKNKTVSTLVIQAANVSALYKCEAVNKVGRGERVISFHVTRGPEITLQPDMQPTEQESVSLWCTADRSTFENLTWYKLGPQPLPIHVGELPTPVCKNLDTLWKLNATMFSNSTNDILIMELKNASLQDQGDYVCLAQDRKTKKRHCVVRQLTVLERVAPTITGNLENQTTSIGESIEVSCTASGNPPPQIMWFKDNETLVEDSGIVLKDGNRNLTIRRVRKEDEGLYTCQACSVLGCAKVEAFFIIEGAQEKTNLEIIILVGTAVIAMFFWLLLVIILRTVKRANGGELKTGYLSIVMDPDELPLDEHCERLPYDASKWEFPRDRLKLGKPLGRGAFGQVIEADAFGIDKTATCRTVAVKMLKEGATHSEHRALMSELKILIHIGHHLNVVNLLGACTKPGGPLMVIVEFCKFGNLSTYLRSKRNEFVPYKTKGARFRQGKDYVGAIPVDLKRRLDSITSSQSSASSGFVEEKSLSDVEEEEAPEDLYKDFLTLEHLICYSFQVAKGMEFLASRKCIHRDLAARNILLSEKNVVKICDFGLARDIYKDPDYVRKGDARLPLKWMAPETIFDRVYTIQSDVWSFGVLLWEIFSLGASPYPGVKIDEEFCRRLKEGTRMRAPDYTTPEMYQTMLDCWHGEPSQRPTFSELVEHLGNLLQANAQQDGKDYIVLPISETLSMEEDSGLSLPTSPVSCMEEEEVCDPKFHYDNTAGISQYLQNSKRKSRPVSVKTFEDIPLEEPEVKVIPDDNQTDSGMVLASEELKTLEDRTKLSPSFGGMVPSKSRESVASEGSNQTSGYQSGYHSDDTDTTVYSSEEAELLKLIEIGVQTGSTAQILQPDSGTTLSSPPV

Structure (SMILES)	IC50
CC(N)c1ccc(Nc2ncc(Cl)c(CCc3ccccc3CC(N)=O)n2)cc1 (stereo not drawn) [Compound 37, 2-(2-(2-(2-(4-(1-aminoethyl)phenylamino)-5-chloropyrimidin-4-yl)ethyl)phenyl)acetamide]	200 nM
Cc1cnc(Nc2ccc(C3(N)COC3)cc2)nc1CCc1ccccc1CC(N)=O [Compound 31, 2-(2-(2-(2-(4-(3-aminooxetan-3-yl)phenylamino)-5-methylpyrimidin-4-yl)ethyl)phenyl)acetamide]	5100 nM
Cc1cnc(Nc2cnn(C)c2)nc1CCc1ccccc1CC(N)=O [Compound 28, 2-(2-(2-(5-methyl-2-((1-methyl-^1H-pyrazol-4-yl)amino)pyrimidin-4-yl)ethyl)phenyl)acetamide]	6840 nM
Cc1cnc(Nc2cnn(C3CCNCC3)c2)nc1CCc1ccccc1CC(N)=O [Compound 33, 2-(2-(2-(5-Methyl-2-((1-(piperidin-4-yl)-^1H-pyrazol-4-yl)amino)pyrimidin-4-yl)ethyl)phenyl)acetamide]	> 10000 nM
CC(N)c1ccc(Nc2ncc(C(F)(F)F)c(CCc3ccccc3CC(N)=O)n2)cc1 (stereo not drawn) [Compound 18, 2-(2-(2-(2-(4-(1-aminoethyl)phenylamino)-5-(trifluoromethyl)pyrimidin-4-yl)ethyl)phenyl)acetamide]	2550 nM
Cc1cnc(Nc2cccnc2)nc1CCc1ccccc1CC(N)=O [Compound 24, 2-(2-(2-(5-methyl-2-(pyridin-3-ylamino)pyrimidin-4-yl)ethyl)phenyl)acetamide]	> 10000 nM
Cc1cnc(Nc2ccc(N3CCNCC3)cc2)nc1CCc1ccccc1CC(N)=O [Compound 2, 2-(2-(2-(5-methyl-2-((4-(piperazin-1-yl)phenyl)amino)pyrimidin-4-yl)ethyl)phenyl)acetamide]	4400 nM
Cc1cnc(Nc2ccc(OC3CCNCC3)cc2)nc1CCc1ccccc1CC(N)=O [Compound 26, 2-(2-(2-(5-methyl-2-((4-(piperidin-4-yloxy)phenyl)amino)pyrimidin-4-yl)ethyl)phenyl)acetamide]	4070 nM
Cc1cnc(Nc2ccc(C3CCNCC3)nc2)nc1CCc1ccccc1CC(N)=O [Compound 4, 2-(2-(2-(5-methyl-2-((6-(piperidin-4-yl)pyridin-3-yl)amino)pyrimidin-4-yl)ethyl)phenyl)acetamide]	> 10000 nM
